“And” between values parts separate entries of the source, which are not always exact repeats. Identical values can stand only once.
What was measured:
Canidae [1] = conditions: oral
Rattus norvegicus [2] = conditions: chronic; duration: 2 years; oral; Increased methaemoglobin and sulfhaemoglobin levels
Canidae [3] = conditions: chronic; oral; diet; M/F; Dog Other; methemoglobin and sulfhemoglobin formation
Mus musculus = conditions: uterotrophic, Active
Oryctolagus sp. = conditions: duration: 14 days, oral, gavage, New Zealand
Rattus norvegicus [4] = conditions: oral; for LOAEL / NOAEL: Crl: CD BR
Rattus norvegicus [5] = conditions: for LEL: uterotrophic, Active
[6] = chronic, duration: 1 years, gavage, M/F, Beagle, Mydriasis and focal neuronal degeneration
[7] = developmental, M/F, generation: F1, F1: Developmental: Uterus: Dead Fetuses + F1: Developmental: Uterus: Fetuses, Live + F1: Developmental: Whole Body: Body Weight, Fetal + F1…
[8] = reproduction developmental, F, generation: P0, P0: Developmental: Uterus: Abortions + P0: Developmental: Uterus: Implantation + P0: Developmental: Uterus: Resorptions, Early + P0: …
[9] = reproduction developmental, F, generation: P0, P0: Uterus: Abortions
[10] = reproduction developmental, F, generation: P0, P0: Whole Body: Maternal Body Weight Change
[11] = developmental, duration: 11 days, gavage, M/F, generation: F1, F1: Developmental: Uterus: Dead Fetuses + F1: Developmental: Uterus: Fetuses, Live + F1: Developmental: Whole Body: Body Weight, Fetal + F1…
[12] = developmental, duration: 11 days, gavage, M/F, Crl:CD(SD) BR, generation: F1, F1: Whole Body: Body Weight, Fetal
[13] = reproduction developmental, duration: 11 days, gavage, F, generation: P0, P0: Developmental: Uterus: Implantation + P0: Developmental: Uterus: Resorptions, Early + P0: Developmental: Uterus: Resorptions, Late + P0…
[14] = duration: 7 days, injection, subcutaneous

`O=C(NC(=O)c1c(F)cccc1F)Nc1ccc(Cl)cc1` [Diflubenzuron] showed an NOAEL (Canidae [1]; chronic, duration: 1 years, Dog Other, Increased methaemoglobin and sulfhaemoglobin levels, platelet counts and hepatic pigmentation) of 2 mg/kg-day, an NOAEL (Rattus norvegicus [2]) of 2 mg/kg-day and an LEL (Canidae [3]) of 10 mg/kg-day. For the same molecule, the NOEL (Canidae [3]) was 2 mg/kg-day.

Molecule `CC(=O)NCC(=O)O.CC(=O)NCC(=O)O.N=C(N)c1ccc(N=NNc2ccc(C(=N)N)cc2)cc1` [Diminazene diaceturate] has an LOEL (Canidae [1]; chronic, duration: 9 months, capsule, M/F, Beagle, Decreased bodyweights, mortality, prostatic malfunction, foci of softening in the brainstem, & testicular atrophy) of 60 mg/kg-day and an LOEL (Canidae [1]; duration: 9 months, capsule, M/F, Beagle, Decreased bodyweights, mortality, prostatic malfunction, foci of softening in the brainstem, & testicular atrophy) of 60 mg/kg-day.

Work on `CO[C@H]1C[C@H](O[C@H]2[C@H](C)O[C@@H](O[C@@H]3/C(C)=C/C[C@@H]4C[C@@H](C[C@]5(C=C[C@H](C)[C@@H](C6CCCCC6)O5)O4)OC(=O)[C@@H]4C=C(C)[C@@H](O)[C@H]5OC/C(=C\C=C\[C@@H]3C)[C@]54O)C[C@@H]2OC)O[C@@H](C)[C@@H]1O` [Doramectin] yielded an LOEL (Canidae [1]; duration: 3 months, gavage, M/F, Beagle, Mydriasis) of 0.3 mg/kg-day and an NOEL (Canidae [1]; subchronic, duration: 3 months, gavage, M/F, Dog Other, Mydriasis) of 0.1 mg/kg-day.

`CO[C@H]1C[C@H](O[C@@H]2/C(C)=C\C[C@@H]3C[C@@H](C[C@]4(C=C[C@H](C)[C@@H](C(C)C)O4)O3)OC(=O)[C@@H]3C=C(C)[C@@H](O)[C@H]4OC/C(=C/C=C\[C@@H]2C)[C@]43O)O[C@@H](C)[C@H]1O[C@H]1C[C@@H](OC)[C@H](NC(C)=O)[C@H](C)O1` [Eprinomectin] was tested, and the LOAEL (Canidae [1]; [6]) was 2 mg/kg-day and the NOEL (Canidae [1]; [6]) was 1 mg/kg-day.

With `C=C1C[C@]23C[C@@]1(O)CC[C@H]2[C@@]12C=C[C@H](O)[C@@](C)(C(=O)O1)[C@H]2[C@@H]3C(=O)O` [Gibberellic acid] the LEL (Mus musculus; duration: 5 days, injection, subcutaneous) was 0.0001 mg/day.

With `CCN(CCO)S(=O)(=O)C(F)(F)C(F)(F)C(F)(F)C(F)(F)C(F)(F)C(F)(F)C(F)(F)C(F)(F)F` [N-Ethyl-N-(2-hydroxyethyl)perfluorooctane sulfonamide] the LOAEL (Oryctolagus sp.; [7]) was 2.5 mg/kg-day, the NOAEL (Oryctolagus sp.; [7]) was 1 mg/kg-day and the NEL (Oryctolagus sp.; developmental, M/F, generation: F1, F1: Uterus: Fetuses, Dead + F1: Uterus: Fetuses, Live + F1: Whole Body: Body Weight, Fetal + F1: Whole Body: Fetal Alterations Count, …) was 3.75 mg/kg-day. The LOAEL (Oryctolagus sp.; [8]) was 2.5 mg/kg-day, the NOAEL (Oryctolagus sp.; [8]) was 1 mg/kg-day and the NEL (Oryctolagus sp.; reproduction developmental, F, generation: P0, P0: Ovary: Corpora Lutea + P0: Uterus: Implantation + P0: Uterus: Resorptions, Early + P0: Uterus: Resorptions, Late + P0: Whole Body: …) was 3.75 mg/kg-day. For the same molecule, the NOAEL (Oryctolagus sp.; reproduction developmental, F, generation: P0, P0: Reproductive: Ovary: Corpora Lutea) was 3.75 mg/kg-day, the LEL (Oryctolagus sp.; [9]) was 3.75 mg/kg-day and the NEL (Oryctolagus sp.; [9]) was 2.5 mg/kg-day. It also gave an LEL (Oryctolagus sp.; [10]) of 2.5 mg/kg-day, an NEL (Oryctolagus sp.; [10]) of 1 mg/kg-day and an LOAEL (Rattus norvegicus [4]; [11]) of 10 mg/kg-day. The NOAEL (Rattus norvegicus [4]; [11]) was 5 mg/kg-day, the NEL (Rattus norvegicus [4]; developmental, duration: 11 days, gavage, M/F, Crl:CD(SD) BR, generation: F1, F1: Uterus: Fetuses, Dead + F1: Uterus: Fetuses, Live + F1: Whole Body: Fetal Alterations Count, External Malformations + F1: Whole Body: …) was 20 mg/kg-day and the LEL (Rattus norvegicus [4]; [12]) was 10 mg/kg-day. For the same molecule, the NEL (Rattus norvegicus [4]; [12]) was 5 mg/kg-day, the LOAEL (Rattus norvegicus [4]; [13]) was 10 mg/kg-day and the NOAEL (Rattus norvegicus [4]; [13]) was 5 mg/kg-day. The NOAEL (Rattus norvegicus [4]; reproduction developmental, duration: 11 days, gavage, F, generation: P0, P0: Reproductive: Ovary: Corpora Lutea) was 20 mg/kg-day, the NEL (Rattus norvegicus [4]; reproduction developmental, duration: 11 days, gavage, F, Crl:CD(SD) BR, generation: P0, P0: Ovary: Corpora Lutea + P0: Uterus: Implantation + P0: Uterus: Resorptions, Early + P0: Uterus: Resorptions, Late + P0: Whole Body: …) was 20 mg/kg-day and the NEL (Rattus norvegicus [4]; short-term, duration: 3 weeks, F, Sprague-Dawley, Kidney: Kidney Weight, Absolute + Kidney: Kidney Weight, Relative + Liver: Acyl-CoA Oxidase Activity, Liver + Liver: Catalase (CAT) Activity…) was 5 mg/kg-day. The LEL (Rattus norvegicus [4]; short-term, duration: 3 weeks, F, Sprague-Dawley, Liver: Copper Zinc Superoxide Dismutase (CuZnSOD) Activity, Lver + Liver: Liver Weight, Relative + Liver: Manganese Superoxide Dismutase (…) was 5 mg/kg-day.

`C#C[C@]1(O)CC[C@H]2[C@@H]3CCC4=CC(=O)CC[C@@H]4[C@H]3CC[C@@]21C` [Norethindrone] gave an LEL (Mus musculus; duration: 3 days, oral) of 0.1 mg/day, an NOEL (Rattus norvegicus [5]; Hershberger, duration: 10 days, oral, gavage, Sprague-Dawley, active + negative + Negative + neither) of 10 mg/kg-day and an LEL (Rattus norvegicus [5]; duration: 14 days, injection, subcutaneous) of 2 mg/day. It also gave an LEL (Rattus norvegicus [5]; duration: 14 days, oral) of 0.1 mg/day.

With `COC(=O)[C@H]1[C@H]2C[C@@H]3c4[nH]c5cc(OC)ccc5c4CCN3C[C@H]2C[C@@H](OC(=O)c2cc(OC)c(OC)c(OC)c2)[C@@H]1OC` [Reserpine] the LEL (Mus musculus; [14]) was 3 mg/kg-day.

`Clc1ccc(C(c2ccccc2Cl)C(Cl)(Cl)Cl)cc1` (stereo unspecified) [o,p'-DDT] was tested, and the LEL (Mus musculus; duration: 1 days, oral) was 375 mg/kg-day and 300 mg/kg-day, the LEL (Mus musculus; duration: 3 days, oral) was 30 mg/kg-day and the LEL (Rattus norvegicus [5]; duration: 0.25 days, injection, subcutaneous) was 10 mg/day. The LEL (Rattus norvegicus [5]; duration: 1 days, oral) was 300 mg/kg-day, the LEL (Rattus norvegicus [5]; duration: 2 days, injection, intraperitoneal) was 4 mg and the LEL (Rattus norvegicus [5]; duration: 2 days, injection, subcutaneous) was 4 mg. For the same molecule, the LEL (Rattus norvegicus [5]; duration: 3 days, oral, diet) was 250 ppm, the LEL (Rattus norvegicus [5]; duration: 7 days, injection, intraperitoneal) was 10 mg/day and the LEL (Rattus norvegicus [5]; [14]) was 50 mg/kg-day and 100 mg/kg-day. For the same molecule, the LEL (Rattus norvegicus [5]; duration: 7 days, oral) was 50 mg/kg-day, the LEL (Rattus norvegicus [5]; duration: 7 days, oral, diet) was 500 ppm and the LEL (Rattus norvegicus [5]; duration: 8 days, oral, diet) was 500 ppm. For the same molecule, the LEL (Rattus norvegicus [5]; duration: 27 days, injection, intraperitoneal) was 0.5 mg/day.

Reference: EPA's ToxValDB 9.5
